Results from PubChem BioAssay (NCI).
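These data come from cells grown in 96-well plates and exposed to compound for 48 hours at five concentrations. GI50 is the concentration that inhibits growth by half. Definition used: TGI = concentration required for complete inhibition of growth.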

How the values were obtained:
Test in all cases: NCI tumour cell line growth inhibition, 48 h
[1] = system: MDA-MB-435
[2] = system: HOP-62 NSCLC
[3] = system: KM12 colon
[4] = system: HL-60(TB) leukemia
[5] = system: M14 melanoma
[6] = system: SF-295 CNS
[7] = system: CAKI-1 renal
[8] = system: UACC-62 melanoma
[9] = system: 786-0 renal
[10] = system: PC-3 prostate
[11] = system: COLO 205 colon
[12] = system: MCF7 breast
[13] = system: HOP-92 NSCLC
[14] = system: HT29 colon
[15] = system: K-562 leukemia
[16] = system: SK-MEL-28 melanoma
[17] = system: TK-10 renal
[18] = system: NCI-H23 lung
[19] = system: UACC-257 melanoma
[20] = system: MDA-N
[21] = system: OVCAR-8 ovarian
[22] = system: SF-268 CNS
[23] = system: SN12C renal
[24] = system: IGROV1 ovarian
[25] = system: CCRF-CEM leukemia
[26] = system: LOX IMVI melanoma
[27] = system: RPMI-8226 leukemia
[28] = system: EKVX NSCLC
[29] = system: SNB-75 CNS
[30] = system: A549 NSCLC
[31] = system: RXF 393 renal
[32] = system: SR leukemia
[33] = system: HCT-15 colon
[34] = system: SK-MEL-5 melanoma
[35] = system: MDA-MB-231 breast
[36] = system: SK-OV-3 ovarian
[37] = system: MALME-3M melanoma
[38] = system: SW-620 colon
[39] = system: DU-145 prostate
[40] = system: T-47D breast
[41] = system: HCC-2998 colon
[42] = system: OVCAR-4 ovarian
[43] = system: MOLT-4 leukemia
[44] = system: SF-539 CNS
[45] = system: BT-549 breast
[46] = system: SNB-19 CNS
[47] = system: NCI-H226 lung
[48] = system: U251 CNS
[49] = system: UO-31 renal
[50] = system: HCT-116 colon
[51] = system: SK-MEL-2 melanoma
[52] = system: HS 578T breast
[53] = system: NCI-H522 lung
[54] = system: OVCAR-5 ovarian
[55] = system: NCI/ADR-RES ovarian
[56] = system: A498 renal
[57] = system: ACHN renal
[58] = system: NCI-H460 lung
[59] = system: OVCAR-3 ovarian

CCOC(=O)N1CCC2C(=C(C)C(C)C3=C2C(=O)c2ccccc2C3=O)C1 (centres undefined)
TGI [1]: 4530 nM | TGI [2]: > 10000 nM | TGI [3]: > 10000 nM | TGI [4]: 5150 nM | TGI [5]: > 10000 nM | TGI [6]: > 10000 nM | TGI [7]: > 10000 nM | TGI [8]: > 10000 nM | TGI [9]: > 10000 nM | TGI [10]: > 10000 nM | TGI [11]: > 10000 nM | TGI [12]: > 10000 nM | TGI [13]: > 10000 nM | TGI [14]: > 10000 nM | TGI [15]: > 10000 nM | TGI [16]: > 10000 nM | TGI [17]: > 10000 nM | TGI [18]: > 10000 nM | TGI [19]: > 10000 nM | TGI [20]: > 10000 nM | TGI [21]: > 10000 nM | TGI [22]: > 10000 nM | TGI [23]: > 10000 nM | TGI [24]: > 10000 nM | TGI [25]: > 10000 nM | TGI [26]: > 10000 nM | TGI [27]: > 10000 nM | TGI [28]: > 10000 nM | TGI [29]: > 10000 nM | TGI [30]: > 10000 nM | TGI [31]: > 10000 nM | TGI [32]: > 10000 nM | TGI [33]: > 10000 nM | TGI [34]: 4270 nM | TGI [35]: > 10000 nM | TGI [36]: > 10000 nM | TGI [37]: 6770 nM | TGI [38]: > 10000 nM | TGI [39]: > 10000 nM | TGI [40]: > 10000 nM | TGI [41]: > 10000 nM | TGI [42]: > 10000 nM | TGI [43]: > 10000 nM

COC(=O)c1ccc2[nH]c(O)c(C(=Nc3ccc(N(C)C(=O)CN4CCN(C)CC4)cc3)c3cccc(OC)c3)c2c1
GI50 [1]: 1480 nM | TGI [1]: 3860 nM | GI50 [2]: 1210 nM | TGI [2]: 4780 nM | GI50 [3]: 41.9 nM | TGI [3]: 4490 nM | GI50 [44]: 463 nM | TGI [44]: 1690 nM | GI50 [4]: 583 nM | TGI [4]: 2510 nM | GI50 [5]: 921 nM | TGI [5]: 2410 nM | GI50 [6]: 1120 nM | TGI [6]: 2630 nM | GI50 [7]: 373 nM | TGI [7]: 3380 nM | GI50 [45]: 1390 nM | TGI [45]: 3470 nM | GI50 [46]: 1640 nM | TGI [46]: 8400 nM | GI50 [8]: 2140 nM | TGI [8]: 4520 nM | GI50 [9]: 825 nM | TGI [9]: 2380 nM | GI50 [10]: 631 nM | TGI [10]: 5870 nM | GI50 [47]: 1080 nM | TGI [47]: 5930 nM | GI50 [11]: 395 nM | TGI [11]: 1800 nM | GI50 [12]: 353 nM | TGI [12]: 1930 nM | GI50 [13]: 2980 nM | TGI [13]: 10900 nM | GI50 [14]: 890 nM | TGI [14]: 13100 nM | GI50 [48]: 1150 nM | TGI [48]: 3000 nM | GI50 [15]: 107 nM | TGI [15]: 4370 nM | GI50 [16]: 1710 nM | TGI [16]: 3770 nM | GI50 [17]: 1610 nM | TGI [17]: 3780 nM | GI50 [18]: 1050 nM | TGI [18]: 3480 nM | GI50 [19]: 2010 nM | TGI [19]: 4640 nM | GI50 [21]: 1220 nM | TGI [21]: 9910 nM | GI50 [49]: 1540 nM | TGI [49]: 4050 nM | GI50 [22]: 1480 nM | TGI [22]: 4080 nM | GI50 [50]: 210 nM | TGI [50]: 4660 nM | GI50 [51]: 1890 nM | TGI [51]: 4510 nM | GI50 [23]: 346 nM | TGI [23]: 10800 nM | GI50 [24]: 191 nM | TGI [24]: 2190 nM | GI50 [25]: 447 nM | TGI [25]: 6830 nM | GI50 [26]: 654 nM | TGI [26]: 2300 nM | GI50 [27]: 1020 nM | TGI [27]: 3550 nM | GI50 [28]: 2040 nM | TGI [28]: 6770 nM | GI50 [29]: 112 nM | TGI [29]: 1780 nM | GI50 [30]: 1390 nM | TGI [30]: 6420 nM | GI50 [31]: 549 nM | TGI [31]: 1870 nM | GI50 [32]: 231 nM | TGI [32]: 4520 nM | GI50 [33]: 1900 nM | TGI [33]: 7040 nM | GI50 [52]: 213 nM | TGI [52]: 4130 nM | GI50 [34]: 1430 nM | TGI [34]: 2780 nM | GI50 [53]: 1030 nM | TGI [53]: 3890 nM | GI50 [35]: 1310 nM | TGI [35]: 3270 nM | GI50 [36]: 198 nM | TGI [36]: 1880 nM | GI50 [37]: 1490 nM | TGI [37]: 2960 nM | GI50 [54]: 2290 nM | TGI [54]: 5460 nM | GI50 [38]: 429 nM | TGI [38]: 4950 nM | GI50 [55]: 12400 nM | TGI [55]: 34000 nM | GI50 [56]: 1260 nM | TGI [56]: 2610 nM | GI50 [57]: 2140 nM | TGI [57]: 7990 nM | GI50 [39]: 1890 nM | TGI [39]: 9320 nM | GI50 [40]: 1280 nM | TGI [40]: 9340 nM | GI50 [58]: 1410 nM | TGI [58]: 3440 nM | GI50 [41]: 1650 nM | TGI [41]: 4980 nM | GI50 [42]: 960 nM | TGI [42]: 2840 nM | GI50 [59]: 960 nM | TGI [59]: 2570 nM | GI50 [43]: 392 nM | TGI [43]: 3260 nM
